Test results published in PMC10786919, “Design-rules for stapled peptides with in vivo activity and their application to Mdm2/X antagonists” (Nature Communications, 2024).
pEC50: −log10 of the molar value. Values after ≈ are worked out from the molar mass of the structure shown. Like-named read-outs stand apart in the source and are kept apart here. Positions of bridges follow the written chain, without caps; N, C: chain ends. Non-standard residues stand in square brackets, D forms with d. Residues, ends and D or L forms follow the SMILES beside them. Phe(3,4-Cl2) = N[C@@H](Cc1ccc(Cl)c(Cl)c1)C(=O)O; Lys(N3) = [N-]=[N+]=NCCCC[C@H](N)C(=O)O; R8 = C=CCCCCCC[C@@](C)(N)C(=O)O; Cba = N[C@@H](CC1CCC1)C(=O)O; S5 = C=CCCC[C@](C)(N)C(=O)O; βAla = NCCC(=O)O; Sar = CNCC(=O)O

Columns and labels:
[1] = Lactate dehydrogenase (LDH) release assay; type: cell-based
Outline: (§1)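 Geometric means of at least three independent biological runs are given for LDH release measured in HCT116 cells stably expressing a p53-driven β-lactamase reporter. Plating density was 8000 cells/well; DMSO in wells was 0.5%.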

HCT116 cells = experiment: Lactate dehydrogenase (LDH) release assay; type: cell-based
Outline: as §1

[2] = Experimental LogD (partition coefficient); conditions: for logD: not stated, Partition Coeff LogD
[3] = Solubility assay (kinetic solubility, PBS pH 7); type: physicochemical; conditions: pH 7, PBS; for solubility kinetic: pH 7, aqueous buffer, kinetic from dmso stock, read-out: Solubility
Outline: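 Values derive from peak-area ratios of sample versus a 100 µM standard, scaled by that standard's concentration.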

in vitro = experiment: in vitro
Outline: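 Azido-peptide permeability was read as loss of NanoBRET signal (donor 450 nm, acceptor 610 nm) after adding NanoBret618-azide at 10 μM final.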

[4] = Nanoclick permeability assay EC50
[5] = 0% FBS 4Hr, read-out: LDH: Cytotoxicity assay: EC50

| Structure (SMILES) | pEC50 ([1]; LDH: Cytotoxicity assay: EC50) | LDH: Cytotoxicity assay: % Effect (HCT116 cells) [%] | logD [2] | solubility kinetic [3] [µM] | EPSA (physchem) [A^2] | cell entry EC50 (in vitro; [4]) [µM] | pEC50 [1, 5] | pEC50 ([1]; 10% FBS 4Hr, read-out: LDH: Cytotoxicity assay: EC50) | LDH: Cytotoxicity assay: % Effect (HCT116 cells; 0% FBS 4Hr) [%] | LDH: Cytotoxicity assay: % Effect (HCT116 cells; 0% FBS 16Hr) [%] | LDH: Cytotoxicity assay: % Effect (HCT116 cells; 10% FBS 4Hr) [%] | cell entry EC50 (in vitro) [µM] | Partition Coeff LogD [2] | Solubility [3] | pEC50 ([1]; 0% FBS 16Hr, read-out: LDH: Cytotoxicity assay: EC50) |
| --- | --- | --- | --- | --- | --- | --- | --- | --- | --- | --- | --- | --- | --- | --- | --- |
| CC(=O)N[C@@H](CCCCN=[N+]=[N-])C(=O)NCCC(=O)N[C@@H](CC(C)C)C(=O)N[C@H](C(=O)N[C@@H](Cc1ccccc1)C(=O)N[C@]1(C)CCCCCCC=CCCC[C@@](C)(C(=O)N[C@@H](CO)C(=O)N[C@@H](C)C(=O)N[C@@H](C)C(N)=O)NC(=O)[C@H](CC2CCC2)NC(=O)[C@H](CCC(N)=O)NC(=O)CN(C)C(=O)[C@H](Cc2c[nH]c3ccccc23)NC(=O)[C@H](Cc2ccc(O)cc2)NC(=O)[C@H](CCC(=O)O)NC1=O)[C@@H](C)O [MP-351] (Ac-[Lys(N3)][βAla]LTF[R8]EYW[Sar]Q[Cba][S5]SAA-NH2; staple 6-13) | < 4.30 | -3.92 | 2.26 | 29 (≈ 57.1 µg/mL) | 193 | > 10 |  |  |  |  |  |  |  |  |  |
| CC(=O)N[C@@H](CCCCN=[N+]=[N-])C(=O)NCCC(=O)N[C@@H](CO)C(=O)N[C@H](C(=O)N[C@@H](Cc1ccccc1)C(=O)N[C@]1(C)CCCCCCC=CCCC[C@@](C)(C(=O)N[C@@H](CO)C(=O)N[C@@H](CO)C(=O)N[C@@H](CO)C(N)=O)NC(=O)[C@H](CC2CCC2)NC(=O)[C@H](CCC(N)=O)NC(=O)[C@H](CO)NC(=O)[C@H](Cc2c[nH]c3ccccc23)NC(=O)[C@H](Cc2ccc(O)cc2)NC(=O)[C@H](CO)NC1=O)[C@@H](C)O [MP-667] (Ac-[Lys(N3)][βAla]STF[R8]SYWSQ[Cba][S5]SSS-NH2; staple 6-13) | < 4.30 | 2.286 | 2.5 | 2 (≈ 3.9 µg/mL) | 208 | 2.23 |  |  |  |  |  |  |  |  |  |
| CC(=O)N[C@@H](CCCCN=[N+]=[N-])C(=O)NCCC(=O)N1CCC[C@H]1C(=O)N[C@H](C(=O)N[C@@H](Cc1ccccc1)C(=O)N[C@]1(C)CCCCCCC=CCCC[C@@](C)(C(=O)N[C@@H](CO)C(=O)N[C@@H](C)C(=O)N[C@@H](C)C(N)=O)NC(=O)[C@H](CC2CCC2)NC(=O)[C@H](CCC(N)=O)NC(=O)[C@H](C)NC(=O)[C@H](Cc2c[nH]c3ccccc23)NC(=O)[C@H](Cc2ccc(O)cc2)NC(=O)[C@H](CCC(=O)O)NC1=O)[C@@H](C)O [MP-259] (Ac-[Lys(N3)][βAla]PTF[R8]EYWAQ[Cba][S5]SAA-NH2; staple 6-13) | < 4.30 | 7.47 | 2.67 | 90.5 (≈ 177 µg/mL) | 221 | 0.29 |  |  |  |  |  |  |  |  |  |
| CC(=O)N[C@@H](CCCCN=[N+]=[N-])C(=O)NCCC(=O)N[C@@H](CC(C)C)C(=O)N[C@H](C(=O)N[C@@H](Cc1ccccc1)C(=O)N[C@]1(C)CCCCCCC=CCCC[C@@](C)(C(=O)NCC(=O)N[C@@H](C)C(=O)N[C@@H](C)C(N)=O)NC(=O)[C@H](CC2CCC2)NC(=O)[C@H](CCC(N)=O)NC(=O)[C@H](C)NC(=O)[C@H](Cc2c[nH]c3ccccc23)NC(=O)[C@H](Cc2ccc(O)cc2)NC(=O)[C@H](CCC(=O)O)NC1=O)[C@@H](C)O [MP-798] (Ac-[Lys(N3)][βAla]LTF[R8]EYWAQ[Cba][S5]GAA-NH2; staple 6-13) |  |  | 2.79 | 80 (≈ 155 µg/mL) | 212 |  | < 4.30 | < 4.30 | 16.01 | 1.68 | 16.43 | 0.0829 |  |  |  |
| CC(=O)N[C@@H](CCCCN=[N+]=[N-])C(=O)NCCC(=O)N[C@@H](CC(C)C)C(=O)N[C@H](C(=O)N[C@@H](Cc1ccccc1)C(=O)N[C@]1(C)CCCCCCC=CCCC[C@@](C)(C(=O)N[C@@H](CO)C(=O)N[C@@H](C)C(=O)N[C@@H](C)C(N)=O)NC(=O)[C@H](CC2CCC2)NC(=O)[C@H](CCC(N)=O)NC(=O)[C@H](C)NC(=O)[C@H](Cc2ccc(Cl)c(Cl)c2)NC(=O)[C@H](Cc2ccc(O)cc2)NC(=O)[C@H](CCC(=O)O)NC1=O)[C@@H](C)O [MP-765] (Ac-[Lys(N3)][βAla]LTF[R8]EY[Phe(3,4-Cl2)]AQ[Cba][S5]SAA-NH2; staple 6-13) | < 4.30 | 2.873 |  |  | 199 | 1.83 |  |  |  |  |  |  | Poorly Behaved | Poorly Behaved |  |
| CC(=O)N[C@@H](CCCCN=[N+]=[N-])C(=O)NCCC(=O)N[C@@H](CC(C)C)C(=O)N[C@H](C(=O)N[C@@H](Cc1ccccc1)C(=O)N[C@]1(C)CCCCCCC=CCCC[C@@](C)(C(=O)N[C@@H](CO)C(=O)N[C@@H](C)C(=O)N[C@@H](C)C(N)=O)NC(=O)[C@H](C)NC(=O)[C@H](CCC(N)=O)NC(=O)[C@H](C)NC(=O)[C@H](Cc2c[nH]c3ccccc23)NC(=O)[C@H](Cc2ccc(O)cc2)NC(=O)[C@H](CCC(=O)O)NC1=O)[C@@H](C)O [MP-894, AZIDE-ATSP-7041 (CBA10 TO A)] (Ac-[Lys(N3)][βAla]LTF[R8]EYWAQA[S5]SAA-NH2; staple 6-13) |  |  | 2.59 | 93 (≈ 178 µg/mL) | 198 |  | < 4.30 |  | 3.381 | 18.53 |  | 1.33 |  |  | < 4.30 |
| CC(=O)N[C@@H](CCCCN=[N+]=[N-])C(=O)NCCC(=O)N[C@@H](CC(C)C)C(=O)N[C@H](C(=O)N[C@@H](Cc1ccccc1)C(=O)N[C@]1(C)CCCCCCC=CCCC[C@@](C)(C(=O)N[C@@H](CO)C(=O)N(C)[C@@H](C)C(=O)N[C@@H](C)C(N)=O)NC(=O)[C@H](CC2CCC2)NC(=O)[C@H](CCC(N)=O)NC(=O)[C@H](C)NC(=O)[C@H](Cc2c[nH]c3ccccc23)NC(=O)[C@H](Cc2ccc(O)cc2)NC(=O)[C@H](CCC(=O)O)NC1=O)[C@@H](C)O [MP-3353] | < 4.30 | 1.89 | 2.67 | 33 (≈ 65.5 µg/mL) | 202 | 0.232 |  |  |  |  |  |  |  |  |  |
| CC(=O)N[C@@H](CCCCN=[N+]=[N-])C(=O)NCCC(=O)N[C@@H](CC(C)C)C(=O)N[C@H](C(=O)N[C@@H](CC1CCC1)C(=O)N[C@]1(C)CCCCCCC=CCCC[C@@](C)(C(=O)N[C@@H](CO)C(=O)N[C@@H](C)C(=O)N[C@@H](C)C(N)=O)NC(=O)[C@H](Cc2c[nH]c3ccccc23)NC(=O)[C@H](CCC(N)=O)NC(=O)[C@H](C)NC(=O)[C@H](Cc2ccccc2)NC(=O)[C@H](Cc2ccc(O)cc2)NC(=O)[C@H](CCC(=O)O)NC1=O)[C@@H](C)O [MP-791] (Ac-[Lys(N3)][βAla]LT[Cba][R8]EYFAQW[S5]SAA-NH2; staple 6-13) | 4.46 | 45.16 | 1.34 | 28 (≈ 55.2 µg/mL) | 197 | > 10 |  |  |  |  |  |  |  |  |  |
| CC(C)C[C@@H]1NC(=O)[C@H](C)NC(=O)[C@H](Cc2c[nH]c3ccccc23)NC(=O)[C@H](Cc2ccc(O)cc2)NC(=O)[C@H](CCC(=O)O)NC(=O)[C@](C)(NC(=O)[C@H](Cc2ccccc2)NC(=O)[C@H](CO)NC(=O)[C@@H](NC(=O)[C@H](CO)NC(=O)[C@@H](N)CCCCN=[N+]=[N-])[C@@H](C)O)CCCCCCC=CCCC[C@@](C)(C(N)=O)NC(=O)[C@H](CC(C)C)NC1=O [MP-0178] | < 4.30 | 0.79 | 2.59 |  | 235 | 1.31 |  |  |  |  |  |  |  | Poorly Behaved |  |
| CC(=O)N[C@@H](CCCCN=[N+]=[N-])C(=O)NCCC(=O)N[C@@H](CC(C)C)C(=O)N[C@H](C(=O)N[C@@H](Cc1ccccc1)C(=O)N[C@]1(C)CCCCCCC=CCCC[C@@](C)(C(=O)N[C@@H](CO)C(=O)N[C@@H](C)C(=O)N[C@@H](C)C(N)=O)NC(=O)[C@H](CC2CCC2)NC(=O)[C@H](CCC(N)=O)NC(=O)[C@H](C)NC(=O)[C@H](Cc2c[nH]c3cc(F)ccc23)NC(=O)[C@H](Cc2ccc(O)cc2)NC(=O)[C@H](CCC(=O)O)NC1=O)[C@@H](C)O [MP-004] | 4.62 | 10.1 | 2.9 | 110 (≈ 219 µg/mL) | 201 | 7.44 |  |  |  |  |  |  |  |  |  |
| CC(=O)N[C@@H](CCCCN=[N+]=[N-])C(=O)NCCC(=O)N[C@@H](CC(C)C)C(=O)N[C@H](C(=O)N[C@@H](Cc1ccccc1)C(=O)N[C@]1(C)CCCCCCC=CCCC[C@@](C)(C(=O)N2CCC[C@H]2C(=O)N[C@@H](C)C(=O)N[C@@H](C)C(N)=O)NC(=O)[C@H](CC2CCC2)NC(=O)[C@H](CCC(N)=O)NC(=O)[C@H](C)NC(=O)[C@H](Cc2c[nH]c3ccccc23)NC(=O)[C@H](Cc2ccc(O)cc2)NC(=O)[C@H](CCC(=O)O)NC1=O)[C@@H](C)O [MP-184] (Ac-[Lys(N3)][βAla]LTF[R8]EYWAQ[Cba][S5]PAA-NH2; staple 6-13) | < 4.30 | 10.48 |  |  | 201 | 0.36 |  |  |  |  |  |  | Poorly Behaved | Poorly Behaved |  |
| CC(=O)N[C@@H](CCCCN=[N+]=[N-])C(=O)NCCC(=O)N[C@@H](CC(C)C)C(=O)N[C@H](C(=O)N[C@@H](Cc1ccccc1)C(=O)N[C@]1(C)CCCCCCC=CCCC[C@@](C)(C(=O)N[C@@H](CO)C(=O)N[C@@H](C)C(=O)N[C@@H](C)C(N)=O)NC(=O)[C@H](CC2CCC2)NC(=O)[C@H](CCC(N)=O)NC(=O)[C@H](C)NC(=O)[C@H](Cc2c[nH]c3ccccc23)NC(=O)[C@H](Cc2ccccc2)NC(=O)[C@H](CCC(=O)O)NC1=O)[C@@H](C)O [MP-028] (Ac-[Lys(N3)][βAla]LTF[R8]EFWAQ[Cba][S5]SAA-NH2; staple 6-13) | 5.07 | 33.41 | 3.2 | 6 (≈ 11.7 µg/mL) | 197 | 0.0464 |  |  |  |  |  |  |  |  |  |
